Experimental data from US20250205215A1, “NOVEL USE OF PITOLISANT FOR TREATING SEVERE FATIGUE” (BIOPROJET, priority 2022, published 2025).
Entries after “also recorded” stand apart in the source; their conditions may differ. Structures can show the parent of a compound that is named as a salt. Where two headings read alike, the source gives them in different places.

Tests used:
healthy volunteers [1] = assay: Adverse effect study at high doses in healthy volunteers; type: in vivo, human
Procedure: (§1) A group of 24 healthy volunteers received placebo or pitolisant monohydrochloride mg at doses of 160, 200 or 240 mg. This last dose corresponds to 6 times the maximum dosage recommended in narcolepsy.
Furthermore, the rare abnormalities were reported in all treatment groups.

histamine H3 receptors = biological target: T1, histamine H3 receptors (Homo sapiens, UniProt Q9Y5N1); settings: 40 mg, cited from earlier work
T1 construct: Brain Histamine H3 Receptors Occupancy; from tissue; host or cells: living human brain (in vivo PET); value cited from Rusjan et al., Br J Pharmacol 2020
T1 sequence (Q9Y5N1 whole entry): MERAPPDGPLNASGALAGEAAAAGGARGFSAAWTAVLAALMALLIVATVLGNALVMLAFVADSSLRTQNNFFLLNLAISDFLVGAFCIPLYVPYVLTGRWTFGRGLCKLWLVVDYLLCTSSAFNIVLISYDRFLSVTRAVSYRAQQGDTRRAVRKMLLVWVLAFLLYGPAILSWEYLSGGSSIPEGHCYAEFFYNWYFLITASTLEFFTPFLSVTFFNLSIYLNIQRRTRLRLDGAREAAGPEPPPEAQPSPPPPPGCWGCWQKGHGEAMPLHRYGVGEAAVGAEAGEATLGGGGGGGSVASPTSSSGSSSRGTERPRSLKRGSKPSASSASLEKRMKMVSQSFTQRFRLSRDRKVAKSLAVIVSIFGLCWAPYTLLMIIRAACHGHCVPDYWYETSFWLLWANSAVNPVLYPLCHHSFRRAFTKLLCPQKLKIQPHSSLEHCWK

[2] = system: patients with Obstructive Sleep Apnea (OSA); settings: 20 mg od, cited from earlier work
[3] = system: human volunteers deprived of sleep; assay: Fusion Frequency in volunteers deprived of sleep during 24 h; type: in vivo; settings: 30 mg once a day
Procedure: Pitolisant hydrochloride was administered once a day at a dose of 30 mg in human volunteers deprived of sleep during 24 h. Fatigue evaluated in these volunteers by the Fusion Frequency was not modified by either placebo or pitolisant at this dose.

patients with narcolepsy = settings: 20 to 40 mg once a day, cited from earlier work
[4] = Blood levels of pitolisant and metabolites in healthy volunteers; type: in vivo, human; settings: 160, 200 or 240 mg, blood samples
Procedure: as §1

healthy volunteers [5] = assay: Wakefulness assessed by Spectral EEG in healthy volunteers; type: in vivo, human; settings: 40 mg
healthy volunteers [6] = assay: Critical Flicker Fusion Test (CFFT) in healthy volunteers; type: in vivo, human; settings: for Fusion Frequency (Flicker Fusion Test), fatigue: end of the day, healthy volunteers
Source text: The flicker fusion frequency (F.F.F.) is defined as the frequency, in flickers per second, at which an interrupted light appears as a steady light. It has been established that the score made in such tests can be used as a measure of fatigue (Luczak A, et al. Ergonomics, 2005 Dec. 15; 48 (15):1770-92; Ma et al PLOS One, 2014 Feb. 5; 9 (2):e87121; Maeda et al Jpn J Radiol. 2011 August; 29 (7):483-7).
In human healthy volunteers, fatigue can be evaluated at the end of the day, when fatigue tends to increase, using a known psychometric test, the Flicker Fusion Test as reported by Luczak A, et al. Ergonomics, 2005 Dec. 15; 48 (15):1770-92; Ma et al PLOS One, 2014 Feb. 5; 9 (2):e87121; Maeda et al Jpn J Radiol. 2011 August; 29 (7):483-7.
In a group of 36 healthy volunteers, the change in Fusion Frequency was evaluated at several times along the day and after administration of either placebo or pitolisant monohydrochloride at increasing dosages (20, 40 or 60 mg).

[7] = system: patients with neurological conditions; settings: meta-analysis, variety of neurological conditions; cited from earlier work
[8] = system: patients with multiple sclerosis; settings: cited from earlier work
[9] = 160, 200 or 240 mg, healthy volunteers

Clc1ccc(CCCOCCCN2CCCCC2)cc1 [pitolisant monohydrochloride]
Number and nature of adverse events versus placebo (healthy volunteers [1]; [9]): did not differ | Occupancy of histamine H3 receptors (mean±SD) (histamine H3 receptors; PET scan, healthy volunteers): 84±7% | Occupancy of the brain histamine H3-receptors (in words) (histamine H3 receptors): high occupancy | SF evaluated with the Pichot scale ([2]; OSA, trial of Dauvilliers et al. 2020): statistically different from placebo | EDS in patients with OSA ([2]; two trials): reduced | Fatigue evaluated by the Fusion Frequency ([3]; listed as Pitolisant hydrochloride): not modified | EDS and cataplexy in patients with narcolepsy (patients with narcolepsy; listed as Pitolisant monohydrochloride): shown to improve | Blood level of pitolisant and metabolites [4]: dose proportionality | Wakefulness by Spectral EEG (healthy volunteers [5]): improved significantly | Fusion Frequency (Flicker Fusion Test), fatigue (healthy volunteers [6]; 60 mg orally): reversed the alteration | Fusion Frequency (Flicker Fusion Test), fatigue (healthy volunteers [6]; 60 mg orally, listed as pitolisant hydrochloride): significantly improved | Flicker Fusion Test, fatigue (conclusion) (healthy volunteers [6]; 30 to 40 mg treatment, conclusion over examples 1 and 2): not improved | Fusion Frequency (Flicker Fusion Test), fatigue (healthy volunteers [6]; lower doses (20, 40 mg)): failed. to provide a significant change

NC(=O)C[S+]([O-])C(c1ccccc1)c1ccccc1 (stereo not shown) [modafinil]
Effect on EDS [7]: generally effective | Effect on fatigue [7]: without clear effect | Adverse events versus placebo [8]: more frequent adverse events | Improving multiple sclerosis fatigue versus placebo [8]: not superior to placebo

NC12CC3CC(CC(C3)C1)C2 [Amantadine, amantadine]
Adverse events versus placebo [8]: more frequent adverse events | Improving multiple sclerosis fatigue versus placebo [8]: not superior to placebo

Clc1ccc(CCCOCCCN2CCCCC2)cc1 [pitolisant, 3-(4-Chlorophenyl) propyl 3-piperidinopropyl ether]
Safety and tolerability (healthy volunteers [1]; 160 mg, 200 mg and 240 mg (doses up to 240 mg od)): without overt adverse effect; also recorded: safe and well tolerated | Laboratory parameters, vital signs, physical examination and ECG parameters (healthy volunteers [1]; [9]): No significant abnormalities | Fatigue evaluated by the Fusion Frequency [3]: not improved | EDS and cataplexy in patients with narcolepsy (patients with narcolepsy): significant effect

COC(=O)C(c1ccccc1)C1CCCCN1 (stereo not shown) [methylphenidate]
Adverse events versus placebo [8]: more frequent adverse events | Improving multiple sclerosis fatigue versus placebo [8]: not superior to placebo
